Results from US20060147564A1, “Composition for preventing or treating allergic disease using black rice extract and its therapeutic use” (CELLMICS CO. LTD, priority 2003, published 2006).

Experiments:
[1] = tested on: mice with asthma induced by ovalbumin; assay: Accumulation of eosinophiles in airway (BALF cell count) of mice with asthma induced by ovalbumin (Example 3); assay type: in vivo, mice (C57BL/6); details: FIG. 2; for percentage of eosinophiles in airway: intraperitoneal injection twice, ovalbumin-exposed mice 58%
Method: At first, in order to prepare animal models of asthma, 200 μl of ovalbumin solution (ovalbumin 200 μg and alumina gel 1000 μg were dissolved in physiological saline) was injected in each abdominal cavity of twenty 10-week old female mice (C57BL/6, Damul Science, Daejeon, Korea). Two weeks later, 200 μl of ovalbumin solution(2% w/v) was sprayed on each mouse to sensitize it. 200 μl of 1% ovalbumin solution was sprayed again on the 21st, the 22nd and the 23rd day, and 10% ovalbumin solution was sprayed again on the 25th day to sensitize. […] Each compound was administered by intraperitoneal injection and the injection was performed twice on the 24th and the 25th day from the treatment of ovalbumin. On the second day from the treatment, each mouse was sacrificed using ether. Then, a microtube was connected to trachea. PBS (phosphate-buffered saline, 0.8 ml) was injected and recovered through the microtube, which was repeated twice, resulting in the obtainment of bronchoalveolar lavage fluid (BALF). The fluid was centrifuged to separate cells in airway lumen and various proteins secreted from the cells and lung. The separated cells were fixed on a slide using cytospin and stained with Diff-Quick staining solution. Photographs were taken by a digital camera attached on Carzeiss microscope (model: […]). 5 random regions per each sample were picked to count eosinophiles, and the percentage of eosinophiles in each sample was shown in FIG. 2.

[2] = tested on: mice with asthma induced by ovalbumin; assay: Inflammation in lung of mice with asthma induced by ovalbumin (microphotographs, Examples 2 and 4); assay type: in vivo, mice (C57BL/6); details: intraperitoneal injection twice
Method: At first, in order to prepare animal models of asthma, 200 μl of ovalbumin solution (ovalbumin 200 μg and alumina gel 1000 μg were dissolved in physiological saline) was injected in each abdominal cavity of twenty 10-week old female mice (C57BL/6, Damul Science, Daejeon, Korea). Two weeks later, 200 μl of ovalbumin solution(2% w/v) was sprayed on each mouse to sensitize it. 200 μl of 1% ovalbumin solution was sprayed again on the 21st, the 22nd and the 23rd day, and 10% ovalbumin solution was sprayed again on the 25th day to sensitize.
The above mice with asthma induced by sensitizing with 10% ovalbumin were divided into two groups; one was used as a negative control group treated with nothing and the other was treated with 10 mg/kg of black rice extract. Black rice extract was administered by intraperitoneal injection and the injection was performed twice on the 24th and the 25th day from the treatment of ovalbumin.
48 hours after the treatment of black rice extract, mice were sacrificed using ether. Inflammation in lung of each mouse was investigated. […] Therefore, it was confirmed that black rice extract could inhibit asthma effectively. […]

[3] = tested on: mice with asthma induced by ovalbumin; assay: Inflammation in lung of mice with asthma induced by ovalbumin (microphotographs, Example 5); assay type: in vivo, mice (Balb/c); details: 1.5 mg/kg and 4.5 mg/kg orally once a day; FIG. 4C and 4D
Method: (§1) In order to prepare animal models with asthma, 0.5 ml of ovalbumin solution (500 μg of ovalbumin and 10 mg of alumina gel were dissolved in 1 ml of PBS) was injected into abdominal cavities of twenty 5-week old female mice(Balb/c, Orient, Seoul) on first and 10th experiment day. The ovalbumin solution was sprayed on each mouse on the 21st, the 22nd and the 23rd day to induce asthma.
(§2) Mice (n=15) with asthma induced by ovalbumin were divided into three groups; one was used as a negative control treated with nothing and two other groups were used as experimental groups each treated with cyanidin glycoside by 1.5 mg/kg and 4.5 mg/kg, respectively. Cyanidin glycoside was orally administered once a day in succession from the 2nd day to the 23rd day.
Precisely, as cyanidin glycoside concentration increased, the percentage of eosinophiles in airway decreased to 49% and 38% each; compared with a negative control. […] Inflammation in lung cells of the sacrificed mice was also investigated and the result was represented in FIG. 4.

[4] = tested on: mice with asthma induced by ovalbumin; assay: Accumulation of eosinophiles in airway (BALF cell count) of mice with asthma induced by ovalbumin (Example 5); assay type: in vivo, mice (Balb/c); details: 2nd to 23rd day, negative control 62.7 ± 4.3, n=5
Method: as §1, §2
24 hours after final sensitization, each mouse was sacrificed using ether and a microtube was connected into trachea. 0.8 ml of PBS was injected and recovered through the microtube, which was repeated twice. The obtained bronchoalveolar lavage fluid (BALF) was centrifuged to separate cells in airway lumen and various proteins secreted from the cells and lung.
The separated cells were fixed on a slide using cytospin and stained with Diff-Quick staining solution. Photographs were taken by a digital camera attached on Carzeiss microscope (model: AXIOVERT 25-CEL). 5 random regions per each sample were picked to count eosinophiles, and the percentage of eosinophiles in each sample was represented in Table 1.

Oc1ccc(-c2[o+]c3cc(O)cc(O)c3cc2O)cc1.[Cl-] [pelargonidin, 3,5,7-trihydroxy-2-(4-hydroxyphenyl)-1-benzopyrylium chloride]
accumulation of eosinophiles in airway ([1]; 0.5 mg/kg and 1.25 mg/kg, intraperitoneal injection): inhibited | percentage of eosinophiles in airway ([1]; 0.5 mg/kg): 30% | percentage of eosinophiles in airway ([1]; 1.25 mg/kg): 20% | inflammation-inhibiting effect ([2]; 0.5 mg/kg, data not shown): outstanding | inflammation in bronchi ([2]; 1.25 mg/kg, 48 hours after treatment, FIG. 3): remarkably reduced

OC[C@H]1O[C@@H](Oc2cc3c(O)cc(O)cc3[o+]c2-c2ccc(O)c(O)c2)[C@H](O)[C@@H](O)[C@@H]1O [Cyanidin glycoside, cyanidin 3-O-β-glucopyranoside]
inflammation in bronchi [3]: remarkably reduced | Percentage of eosinophiles ([4]; 1.5 mg/kg orally once a day): 49.5 ± 5.8 % | Percentage of eosinophiles ([4]; 1.5 mg/kg orally once a day, listed as cyanidin glycoside): 49% | Percentage of eosinophiles ([4]; 4.5 mg/kg orally once a day): 38.2 ± 6.2 % | Percentage of eosinophiles ([4]; 4.5 mg/kg orally once a day, listed as cyanidin glycoside): 38%
